# Measurements from US9320760B2, “Compositions and methods of use of compounds to increase cancer patient survival time” (BioNumerik Pharmaceuticals, Inc., priority 2008, dated 2016).
# “And” between values parts separate entries of the source, which are not always exact repeats. Equal entries are not always repeated.
# Legend:
# [1] = biological target: T1, glutathione reductase (GR) (Homo sapiens, UniProt P00390); assay: NADPH oxidation, glutathione reductase (GR) alone; assay type: biochemical
# T1 sequence (P00390 44-522): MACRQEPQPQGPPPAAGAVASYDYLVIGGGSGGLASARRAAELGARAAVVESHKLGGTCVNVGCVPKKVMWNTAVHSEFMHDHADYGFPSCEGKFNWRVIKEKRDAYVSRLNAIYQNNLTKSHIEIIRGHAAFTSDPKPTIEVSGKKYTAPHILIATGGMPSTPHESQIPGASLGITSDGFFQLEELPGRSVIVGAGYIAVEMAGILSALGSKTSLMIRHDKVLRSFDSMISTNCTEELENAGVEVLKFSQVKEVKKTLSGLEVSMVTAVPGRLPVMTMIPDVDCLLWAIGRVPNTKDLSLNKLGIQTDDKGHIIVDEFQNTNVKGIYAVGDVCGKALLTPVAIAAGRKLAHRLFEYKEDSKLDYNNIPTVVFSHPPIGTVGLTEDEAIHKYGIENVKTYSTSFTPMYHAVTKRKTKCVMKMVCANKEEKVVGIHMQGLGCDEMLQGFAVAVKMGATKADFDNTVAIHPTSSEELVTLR
# Method: The Formula (I) compound was utilized at a concentration of 0.5 mM.
# [2] = biological target: T2, GST (m1-1 isotype of GST) (Homo sapiens, UniProt P09488); assay: GST assay: conjugation of reduced glutathione to 1-chloro-2,4-dinitrobenzene (CDNB), 340 nm; assay type: biochemical; conditions: for Slope Abs/min: individual assay run, 1 mM GSH, slope 8.9 to 13.1 min, 20° C.; for Slope Mean: mean of three runs (0 mM control 0.0449); for Relative Activity: normalized to reactions with no Tavocept
# T2 construct: purchased
# T2 sequence (P09488 1-218): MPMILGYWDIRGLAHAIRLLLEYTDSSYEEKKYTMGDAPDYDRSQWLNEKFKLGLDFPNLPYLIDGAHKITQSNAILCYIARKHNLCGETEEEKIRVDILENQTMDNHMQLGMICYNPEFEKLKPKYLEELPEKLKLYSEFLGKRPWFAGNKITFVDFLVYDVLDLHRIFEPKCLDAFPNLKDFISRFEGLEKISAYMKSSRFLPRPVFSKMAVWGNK
# Method: An in vitro assay for GST has been developed and reported. See, Meyer, D. J. and Ketterer, B., Purification of soluble human glutathione S-transferases. Methods Enzymol. 252:53-65 (1995). This assay monitors the conjugation of reduced glutathione to 1-chloro-2,4-dinitrobenzene (CDNB), as illustrated in Reaction Scheme II, below.
# Reduced thiol forms a conjugate with CDNB (extinction coefficient=9600 M^−1 cm^−1), which is detected at 340 nm. […] A typical 1 mL assay was set up by mixing 500 μL NaHPO4 buffer (200 mM, pH 6.5), 20 μL GSH (50 mM), 20 μL CDNB (50 mM), and 458 μL sterile water. Reactions were incubated at 20° C. in the cuvette holder of the spectrophotometer for approximately 5 min. prior to initiating the assay with the addition of enzyme (m1-1 isotype of GST; activity >100 U/mg). The enzyme stock purchased from the vendor was diluted 1:100 in 200 mM NaHPO4 buffer (pH 6.5), and 2 μL of the diluted enzyme was added to initiate the reaction. The final amount of enzyme added to the assay was typically 0.002 U. Assays were run at 20° C. in 1 mL quartz cuvettes (Hellma Scientific). Slopes were measured in the linear range of the assay (i.e., typically between 5 to 10 min.). […] Final reaction volumes were fixed at 1 mL by adjusting the amount of water added.
# All UV-visible assays were performed using a Varian Cary 100 spectrophotometer equipped with a thermostatic jacketed multi-cell holder. The default parameters of the Cary Win UV Enzyme Kinetics application (version 2.00) were used; with the exceptions of using both the visible and deuterium lamps, and setting the wavelength to 340 nm, the temperature to 20° C., and the maximal duration of the assay at 30 minutes.
# Raw data was obtained on a Cary 100 spectrophotometer. […] The first phase was a baseline corresponding to the time prior to addition of enzyme (typically 2-5 min. in duration). Assays in the first phase of the reaction contained only substrate, buffer and (in some assays) Tavocept™. The spectrophotometer was put in pause mode while enzyme (GST) was added and mixed into the assay reactions. No absorbance values were collected during the process of enzyme addition. The region of experimental interest was during the linear phase of the enzyme reaction, which immediately followed the addition of enzyme. The linear phase is of experimental interest because it is when the classical model of Michaelis-Menton kinetics holds true. During this phase the substrate concentration is high (>Km for enzyme) and, therefore, the rate of catalysis is independent of the substrate concentration. It was during this time that reaction rates (i.e., slopes of change in absorbance with time) were measured using the Cary 100 software. The duration of the linear phase was between 5-10 minutes, depending upon the specific reaction conditions. Reactions were considered complete when substrate concentration was no longer saturating and became a rate limiting factor of the assay. When the substrate was limiting, the reaction rate deviated from linearity. This end phase of the reaction was typically observed after 10 to 15 minutes. Absorbance and time values during the end phase of the reaction were not used in slope calculations because the reaction was effectively over at this point as the reaction no longer followed the classical Michaelis-Menton model for enzyme kinetics. Completion of the reaction on the Cary software could be detected visually by overlaying a straight line beginning at the addition of enzyme and extending past the end phase of the assay curve. Upon completion of a set of reactions data was stored as an electronic “batch” file. Sigma Plot was used specifically to show the mean of assays run in triplicate with linear regression lines and error bars illustrating standard deviation. Descriptive statistics (mean and standard deviation) were used to describe and summarize the results of the experiments. The results of these experiments are illustrated in FIG. 16. […]
# [3] = biological target: T3, Thioredoxin Reductase + Thioredoxin (Bos taurus, UniProt O97680); assay: NADPH oxidation at 340 nm, coupled thioredoxin (TX)/thioredoxin reductase (TXR)/NADPH system; assay type: biochemical, bovine
# T3 sequence (O97680 1-105): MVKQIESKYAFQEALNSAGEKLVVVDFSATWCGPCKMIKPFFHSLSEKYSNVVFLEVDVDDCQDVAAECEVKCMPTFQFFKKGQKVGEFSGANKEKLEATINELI
# Method: Biochemistry 21:6628-6633 (1982).
# Data was then collected and plotted in Microsoft Excel. Error calculations, and graphical representations were performed in Microsoft Excel and Kaleidograph (ver. 3.5). Nonlinear data was graphically rendered using Kaleidograph. ANOVA and other statistical analyses were performed using SAS (ver. 8.2). Unless otherwise noted, significance level was set at 0.05, and error bars represent actual experimental standard deviation.
# It should be noted that for the purposes of FIG. 17 only, thioredoxin is labeled TXR and thioredoxin reductase is labeled TRR.
# Table 4, below, illustrates that various Formula (I) compounds (i.e., disulfide-containing compounds) of the present invention can serve as alternate substrate inhibitors for the coupled thioredoxin (TX)/thioredoxin reductase (TXR)/NADPH system as measured by the oxidation of NADPH. In Table 4, the Formula (I) compounds were utilized at a concentration of 0.5 mM.
structure (smiles),measurement,setting,value
"O=S(=O)([O-])CCSSCCS(=O)(=O)[O-].[Na+].[Na+] [Tavocept™, disodium 2,2′-dithio-bis-ethane sulfonate]","NADPH Oxidation, GR","[1]; Disulfide 0.5 mM, n = 6",0.0 ± 0.01 nmol/min/mL
same,substrate / alternative substrate inhibitor for glutathione reductase,[1]; result in words,not a substrate
same,Slope Abs/min,[2]; Tavocept 1.1 mM,0.0437 Abs/min and 0.0407 Abs/min and 0.0427 Abs/min
same,Slope Mean,[2]; Tavocept 1.1 mM,0.0424 Abs/min
same,Relative Activity,[2]; Tavocept 1.1 mM,94.4%
same,Slope Abs/min,[2]; Tavocept 3.3 mM,0.0295 Abs/min and 0.0242 Abs/min and 0.0284 Abs/min
same,Slope Mean,[2]; Tavocept 3.3 mM,0.0274 Abs/min
same,Relative Activity,[2]; Tavocept 3.3 mM,61%
same,Slope Abs/min,[2]; Tavocept 10 mM,0.0155 Abs/min and 0.0158 Abs/min and 0.0139 Abs/min
same,Slope Mean,[2]; Tavocept 10 mM,0.0151 Abs/min
same,Relative Activity,[2]; Tavocept 10 mM,33.6%
same,increase in GST inhibition,[2]; Tavocept raised from 1.1 mM to 3.3 mM,~6 times
same,"NADPH Oxidation, Thioredoxin Reductase + Thioredoxin","[3]; Disulfide 0.5 mM, minimum of triplicate assays",13.1 ± 0.2 nmol/min/mL
same,NADPH oxidation by TXR in the presence of TX,"[3]; FIG. 17, increasing Tavocept concentration",concentration-dependent increase
same,oxidation of reduced thioredoxin to oxidized thioredoxin,[3]; result in words,drives the oxidation
